Measured values from patent US20120156704A1, “IN VITRO METHOD FOR DETECTING GP91PHOX AS A MARKER OF OXIDATIVE STRESS” (BIOS INTERNATIONAL S.R.L., priority 2009, published 2012).

Key:
[1] = system: polymorphonuclear leukocytes (PMN); test: sgp91phox in supernatant of PMN by ELISA; type: cell-based, human; conditions: PMA 10 μM; unstimulated 1.53±0.66
Procedure: Polymorphonuclear leukocytes (PMN) were isolated from freshly taken EDTA-blood from healthy volunteers (n=5, healthy subjects) by dextran enhanced sedimentation of red blood cells, Ficoll-Histopaque density centrifugation, lysis of remaining erythrocytes with distilled water and washing of cells with Hank's balanced salt solution (HBSS) in the absence of any divalent cations. Finally, the cell pellet was suspended in 1 ml of HBSS and stimulated with or without 10 μM of phorbol 12-myristate 13-acetate (PMA). To evaluate sgp91phox in PMN the supernatant was analyzed by ELISA method as above reported.
(§1) To evaluate the source of sgp91phox we isolated platelets, PMN and lymphocytes/monocytes from the same blood sample.

lymphocytes/monocytes = test: sgp91phox in supernatant of lymphocytes/monocytes by ELISA; type: cell-based, human; conditions: LPS 100 ng/ml; unstimulated 1.11±0.55
Procedure: Blood samples were collected in heparinized tubes (10 IU/ml). Lynphocytes/Monocyte were isolated after centrifugation of the blood from healthy volunteers (n=5, healthy subjects) with a polysucrose-sodium diatrizoate solution, 1.077 g/ml density and 280 mOsm osmolarity (Lymphoprep; Nycomed, Oslo, Norway) at 800 g at 20° C. The Lynphocytes/Monocyte cell layer was collected and the cells were thus washed two times in a solution of cold phosphate-buffered saline (pH 7.2), supplemented with 1% fetal calf serum and 2 mmol/l EDTA (Sigma-Aldrich, Milano, Italy). The cell suspension was stimulated with or without lipopolysaccharide (100 ng/ml) (LPS), sgp91 content in the supernatant was evaluated by ELISA method as above reported.
as §1

platelets = test: sgp91phox in supernatant of platelets by ELISA with the monoclonal antibody of the invention; type: cell-based, human
platelet NADPH oxidase = test: Platelet NADPH oxidase activation: ROS production in AA-stimulated platelets by cytofluorimetry; type: cell-based, human; conditions: AA 0.5 mM
Procedure: To obtain platelet rich plasma (PRP) from HC and HS patients, samples were centrifuged 15 min at 180 g. To avoid leukocyte contamination, only the top 75% of the PRP was collected. Platelet pellet was suspended in HEPES buffer, pH 7.4 (2×10^8 platelets/mL, unless otherwise noted) and processed differently according to the type of experiment to be carried out.
To test NADPH oxidase activity, the levels of ROS in platelets from 5 human healthy subjects were measured by cytofluorimetry in the presence and in the absence of specific NADPH oxidase inhibitors, such as apocynin and the gp91^phox blocking peptide gp91ds-tat. Platelets were incubated with 2′,7′-dichlorofluorescin diacetate […] for 15 minutes at 37° C. After incubation, 100 μl of the sample was treated with arachidonic acid (AA, 0.5 mM) in presence or less of apocynin (100 μM) or the gp91^phox specific blocking peptide (gp91ds-tat, 50 μM). Then 10 μl of each sample was diluted with 1 ml of PBS and analyzed by flow cytometry. Basal OFR level in resting platelets was expressed as mean fluorescence (MF), AA-induced OFR production was expressed as stimulation index (S.I.=mean level of fluorescence in AA-stimulated platelet/mean level of fluorescence in unstimulated platelets) (Pignatelli P et al. Blood (1998) 95:484-490.

sgp91phox = sgp91phox in sera of the clinical study by the ELISA assay of the invention; type: in vivo, human; conditions: group B
Procedure: The samples tested were sera from the same sampling of the clinical study of Example 2, stored frozen at −80° C. up to the use.
The proprietary primary policlonal antibody against SEQ ID NO 1 and the primary monoclonal antibody against SEQ ID NO 3 (i.e., the proprietary antibody of the present invention from the hybridoma deposited at ATCC on Jun. 10, 2010 under No. SD-6311) already described above were diluted 1:100 with coating buffer (catalog. C3041, Sigma Chemicals) and 100 μl of this primary antibody solution were placed in 96-well ELISA plates for 1 h at room temperature (RT). After incubation the content of each well in the plates was removed and the wells were washed three times with washing buffer (Tris-buffered saline 50 mM, pH 8.0, Tween 20; catalog. T9039, Sigma Chemicals).
Subsequently, 200 μl of saturation buffer containing 1% BSA (catalog T6789, Sigma Chemicals) were added to the wells for 30 minutes at RT. The wells were then washed three times with the washing buffer, as above.
100 μl of standard or of sample to be assayed were then added to the wells and the incubation was carried out for 1 h at RT.
A standard curve was obtained by using increasing concentrations of the gp91^phox peptide of SEQ ID NO 1 or of the peptide of SEQ ID NO 3 (i.e., 64 pg/ml; 32 pg/ml; 16 pg/ml; 8 pg/ml) obtained by diluting the peptides in buffer, and incubated for 1 h see FIG. 4, panel A and panel B.
100 μl of a secondary goat-anti-rabbit IgG-HRP antibody (Santa Cruz, catalog sc2004) or of a secondary goat anti-mouse IgG-HRP antibody (Santa Cruz, catalog sc 2060) diluted 1:100 with coating buffer, were then incubated at RT for 1 h.
After aspirating the contents of the wells and washing three times with washing buffer, as described above, 100 μl of substrate (Santa Cruz, catalog SK-4400) were added to the wells for 30 minutes at RT. At the end of the incubation, 100 μl of H2SO4 2M (Merck, catalog 30148297) were also added to the wells. Subsequently, reading of the developed color was carried out with a spectrophotometer at 450 nm.
The final concentration of the samples were calculated by using the proper standard curve obtained with a gp91^phox peptide, as described above.

platelet gp91phox = test: gp91phox expression on platelets by flow cytometry in the clinical study; type: in vivo, human; conditions: after 30 days of treatment
Procedure: To evaluate gp91^phox expression on platelets, 50 μl of stabilized whole blood (see above) were incubated for 30 minutes with 5 μl of monoclonal antibody against gp91^phox (20 μg/ml; Santa Cruz), and 5 μl of PE-conjugated monoclonal antibody against CD61 (Coulter) (20 μg/ml), respectively, as described in Martino F. et al., PEDIATRICS (2008), supra. The samples incubated with the monoclonal antibody against gp91^phox were then incubated with a secondary IgG FITC-conjugated antibody against mouse. After incubation, 1 ml of 1× PBS was added to proceed with the cytofluorimetric analysis.
Isotypic controls were carried out by preparing a sample with a non-specific anti-mouse IgG-FITC e IgG1-PE with the same ratio f/p for FITC e PE. The adequate concentration of the monoclonal antibodies used was determined in preliminary tests (not shown).
All the samples were analyzed within 15 minutes from dilution. FITC fluorescence was detected with an Epics XL-MCL cytometer (Coulter, Milan Italy) at 525 nm, while PE fluorescence was detected at 575 nm. All the parameters were grouped with a 4-decade logarithmic amplification.
Spectral overlap was balanced by fluorescence compensation, as defined in preliminary tests. […] Platelets and platelet-platelet aggregates were identified by logical gating according to their CD61 phycoerythrin fluorescence and forward scatter characteristics. […]

[2] = system: hypercholesterolemic patients; conditions: group B, diet + atorvastatin 10 mg/day, end of 30 days, p<0.001
Procedure: The study was carrier out in 30 consecutive patients (16 male and 14 female subjects) suffering from hypercholesterolemia, defined as LDL cholesterol levels above 200 mg/dl, 52±4 years of age.
During this phase of the study the patients were subjected to a low-fat diet containing average quantities of macronutrients that corresponded to a 7% energy coming from fats and 200 mg/day of cholesterol coming from diet, according to ATPIII guidelines.
Whole blood anticoagulated samples were from fasting patients (5 ml) in between 8.00 and 9.00 in the morning. The samples were then kept for 1 hour at 37° C. and centrifuged at 3000×g for 10 minutes to obtain sera. The supernatant thus obtained was kept frozen at −80° C. until used for the assays. […]
Briefly, a 10 ml aliquot of urine was extracted on a C-18 SPE column and the recovery was verified by addition of a radioactive tracer (tritiated PGF2α-III). […] The concentration of PGF2α-III was corrected for the recovery and creatinine excretion, and was expressed as picogram per milligram (pg/ml) of creatinine. […]
The samples thus obtained were stored at −20° C. overnight and then analyzed by SDS-PAGE and immunoblot.

[3] = 30 days atorvastatin vs baseline

## CCCCCCCCCCCCCC(=O)O[C@@H]1[C@@H](C)[C@@]2(O)[C@@H](C=C(CO)C[C@]3(O)C(=O)C(C)=C[C@@H]23)[C@@H]2C(C)(C)[C@]12OC(C)=O [PMA, phorbol 12-myristate 13-acetate]
[1]
  sgp91phox in supernatant of stimulated PMN: 11.85 ± 3.23 pg/mL

## lipopolysaccharide [LPS]
lymphocytes/monocytes
  sgp91phox in supernatant of stimulated lymphocytes/monocytes: 7.5 ± 2.64 pg/mL

## COc1cc(C(C)=O)ccc1O [apocynin]
platelets; specific NADPH oxidase inhibitors, ELISA of supernatant
  levels of sgp91phox shed in the cell medium of AA-activated platelets: decrease
Platelet NADPH oxidase; apocynin 100 μM, gp91ds-tat 50 μM
  effect on AA-induced ROS production in platelets: inhibited

## CC(C)c1c(C(=O)Nc2ccccc2)c(-c2ccccc2)c(-c2ccc(F)cc2)n1CC[C@@H](O)C[C@@H](O)CC(=O)O [atorvastatin]
sgp91phox; [3]
  reduction in sgp91phox, ELISA with monoclonal antibody (SD-6311): −25%
  reduction in sgp91phox, ELISA with polyclonal antibody: −33%
sgp91phox; end of 30 days atorvastatin, from 32.5±4.6 at baseline, p<0.001
  sgp91phox serum level, ELISA with monoclonal antibody (SD-6311): 23.5 ± 6.5 pg/mL
sgp91phox; end of 30 days atorvastatin, from 36.6±5.6 at baseline, p<0.001
  sgp91phox serum level, ELISA with polyclonal antibody: 24.5 ± 7.7 pg/mL
Platelet gp91phox
  variation in platelet gp91phox after treatment: no significant variation
[2]; from 276±46 at baseline
  serum total cholesterol: 208 ± 38 mg/dL
[2]; from 383±51 at baseline
  urinary isoprostanes levels: 241±58 pg/mg of creatinine

## CCCCC/C=C\C/C=C\C/C=C\C/C=C\CCCC(=O)O [AA, arachidonic acid]
platelets; AA-stimulated, unstimulated 1.18±0.84
  sgp91phox in supernatant of stimulated platelets: 7.05 ± 2.04 pg/mL
Platelet NADPH oxidase
  ROS production after platelet activation: increase
